Several values for one entry are separate records, joined by “and”; a condition that tells them apart may be missing. Identical values can stand only once.
Tests used:
PaMTIP [1] = molecular target: T1, PaMTIP (Pseudomonas aeruginosa, UniProt Q9HZK1); format: biochemical
PaMTIP [2] = molecular target: T1, PaMTIP; experiment: PaMTIP inhibition assay; format: biochemical
[3] = phosphorolysis, 25 °C, 100 mM Hepes pH 7.4, 100 mM phosphate
[4] = initial phase, 1 nM PaMTIP, 2 mM MTI, 25 °C, pH 7.4
[5] = second binding phase after slow-onset, 1 nM PaMTIP, 2 mM MTI, 25 °C, pH 7.4

T1 sequence (Q9HZK1 whole entry): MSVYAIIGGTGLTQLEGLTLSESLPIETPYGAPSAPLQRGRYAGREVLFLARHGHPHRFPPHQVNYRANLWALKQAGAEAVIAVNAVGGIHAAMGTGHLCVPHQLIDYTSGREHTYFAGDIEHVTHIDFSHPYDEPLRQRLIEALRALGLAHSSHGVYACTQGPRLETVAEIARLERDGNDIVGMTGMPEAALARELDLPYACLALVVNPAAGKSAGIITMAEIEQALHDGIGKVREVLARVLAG

In the case of 5'-methylthioadenosine [MTA], the kcat (PaMTIP [1]; [3]) is reported as < 10^−4 s^−1 and the Ki (PaMTIP [2]; competitive inhibitor of MTI, 200 µM MTI) is reported as 70000 ± 20000 nM.
`CSC[C@H]1CN(Cc2c[nH]c3c(=O)[nH]cnc23)C[C@@H]1O` [MT-DADMe-ImmH, 5'-methylthio-DADMe-ImmH] was tested, and the Ki (PaMTIP [2]; [4]) was 0.8 ± 0.1 nM and the Ki (PaMTIP [2]; [5]) was 0.34 ± 0.02 nM.
For `Nc1ncnc2c1ncn2[C@@H]1O[C@H](CO)[C@@H](O)[C@H]1O` [adenosine], the kcat (PaMTIP [1]; [3]) was 0.0549 s⁻¹ and 0.0549 ± 0.0005 s⁻¹ and the “fold decrease of kcat/Km in comparison with MTI” value (PaMTIP [1]; relative to MTI) was 750 fold.
With `O=c1[nH]cnc2c1ncn2[C@@H]1O[C@H](CO)[C@@H](O)[C@H]1O` [inosine] the kcat (PaMTIP [1]; [3]) was 0.57 s⁻¹ and 0.57 ± 0.04 s⁻¹.
In the case of 5'-methylthioinosine [MTI], the slow hydrolysis rate (PaMTIP [1]; hydrolysis to hypoxanthine and 5-methylthioribose) is reported as 3.8e-05 s⁻¹, the Km (PaMTIP [1]; [3]) is reported as 2.6 ± 0.4 µM and the kcat (PaMTIP [1]; [3]) is reported as 4.8 s⁻¹ and 4.8 ± 0.2 s⁻¹.
With `O=c1[nH]cnc2c([C@@H]3N[C@H](CSc4ccccc4)[C@@H](O)[C@H]3O)c[nH]c12` [PhT-ImmH, 5'-phenylthio-ImmH] the slow-onset inhibition (PaMTIP [2]; PaMTIP) was “induces slow-onset inhibition”, the Ki (PaMTIP [2]; [4]) was 0.66 ± 0.09 nM and the Ki (PaMTIP [2]; [5]) was 0.035 ± 0.003 nM.
With `CSC[C@H]1N[C@@H](c2c[nH]c3c(=O)[nH]cnc23)[C@H](O)[C@@H]1O` [MT-ImmH, 5'-methylthio-ImmH] the “fold tighter binding than MT-DADMe-ImmH (Ki*)” value (PaMTIP [2]; PaMTIP) was 4 fold, the Ki (PaMTIP [2]; [4]) was 0.84 ± 0.05 nM and the Ki (PaMTIP [2]; [5]) was 0.076 ± 0.005 nM.

From paper PMC3040260 (Biochemistry, 2011)
